# Results published in PMC3438169 (PLoS ONE, 2012).
# *1 amine or outer side, *2 acyl side, *3 side chain or, on linkers, in order; H or OH if unused. Where a SMILES comes first, the peptide text is derived from it. [ ]: non-standard residue; d: D form. dAla(ψthiazole) = C[C@@H](N[*:1])c1nc(C(=O)[*:2])cs1; Trp(4-OMe) = COc1cccc2[nH]cc(C[C@H](N)C(=O)O)c12; dAbu = CC[C@@H](N)C(=O)O; Dha = C=C(N)C(=O)O; Sar = CNCC(=O)O
# Experiments:
# [1] = tested on: P. aeruginosa; test: Broth microdilution susceptibility to argyrin B, P. aeruginosa strains; assay type: cell-based; conditions: for Susceptibility to argyrin B: broth microdilution
# [2] = tested on: RKO; test: Cell viability (CellTiter-Glo), RKO with siRNA or mEF-G1 variants; assay type: cell-based, human
# Procedure: (§1) HCT116 (ATCC, CCL-247) and RKO (ATCC, CRL-2577) cell lines were maintained in a humidified incubator at 37°C and 5% CO2 in RPMI1640 supplemented with 10% FBS. Cell viability was determined using the CellTiter-Glo luminescent cell viability assay (Promega). […] Subsequently, 40 µl of CellTiter-Glo reagent was added to each well and luminescence recorded on an Envision plate reader (Perkin Elmer). Each treatment condition was tested in triplicate and compared to an equivalent volume of DMSO as control.
# (§2) Non-targeting (NT) or GFM1 siRNA pools were obtained from Dharmacon (ON-TARGETplus SMART pool D-001810 and L-013685). HCT116 and RKO cells were reverse transfected in 6-well plates using RNAiMax (Invitrogen) and 25 nM siRNA. After 2 days, cells were harvested by trypsinization and re-plated into 6-well plates for western blot analysis or into 384-well plates for compound treatments and cell viability determination using CellTiter-Glo as described above.
# (§3) The human GFM1 cDNA (encoding mEF-G1, Table 2) was mutagenized in pENTR221 (Invitrogen) using QuikChangeII XL site-directed mutagenesis (Stratagene). The following point mutations were introduced: C1355T (encoding S452L), C1481T (encoding S494F) and T2078A (encoding L693Q). The GFM1 cDNAs were then subcloned into the mammalian expression vector pLenti4/TO/V5 using LR clonase II (Invitrogen) and sequence-verified. The pLenti4 constructs were then co-transfected with a lentiviral plasmid mix (encoding LP1, LP2 and VSV-G) into 293T cells, and viral particles were harvested after 72 h and used to infect HCT116 and RKO cells. Stable cell lines were generated by selection with 400 µg/ml Zeocin and plated into 6-well plates for western blot analysis or into 384-well plates for compound treatments and cell viability determination using CellTiter-Glo as described above.
# [3] = tested on: recombinant human mEF-G1 S452L; test: Biacore binding, human mEF-G1 S452L; conditions: 10, 20, 40 µM, HBS-P+ pH 7.4, 4% DMSO
# Source text: GFM1 encoding the active site of EF-G1 (residues 36–751) was PCR amplified from pDONR221 constructs using primers (GGGGACAAGTTTGTACAAAAAAGCAGGCTTAATGTCTTCATCAGGGGTGATT, GGGGACCACTTTGTACAAGAAAGCTGGGTATTAGTTCTTGGCTTTTCC). P. aeroginosa fusA1 encoding full-length EF-G was PCR amplified from pET28a-PaEFG-Nhis using primers (GGGGACCACTTTGTACAAGAAAGCTGGGTATTATCAACCTTGTTTTTT, GGGGACAAGTTTGTACAAAAAAGCAGGCTTAATGGCCCGTACTACACCC). Purified PCR products were cloned into the pDONR221 vector using Gateway cloning and BP Clonase II (Invitrogen), shuttled into an E.coli protein expression vector for N-terminal tagging (Avitag-His6 vector) using LR Clonase II (Invitrogen), and verified by sequencing. Avitag-His6-hEF-G1 and Avitag-His6-PaEF-G constructs were transformed into BL21-AI cells (Invitrogen) and isolated single colonies were used to inoculate 5 ml cultures which were grown overnight at 37°C with shaking. […]. Briefly, protein was captured on column using binding buffer (50 mM Tris; pH 7.5, 300 mM NaCl, 20 mM imidazole, 10% glycerol), washed extensively with washing buffer (50 mM Tris; pH 7.5, 500 mM NaCl, 30 mM imidazole, 10% glycerol), and then eluted with elution buffer (50 mM Tris; pH 7.5, 500 mM NaCl, 250 mM imidazole, 10% glycerol). […]
# [4] = tested on: yeast (BY4741, BYΔ8); test: Yeast susceptibility determination, wild-type and BYΔ8; assay type: cell-based, S. cerevisiae; conditions: for Activity against yeast (in words): rich medium with glucose
# Procedure: Yeast strains used in this study are BY4741 [32] and strain BYΔ8, derived from BY4741 but deleted for eight genes involved in drug resistance (efflux pumps: snq2, pdr5, yor1; transcription factors: pdr1, pdr2, pdr3, yap1, yrm1). […] Starting OD600 was 0.1, total volume per well 120 µl. Plates were incubated at 30°C with 770 RPM orbital shaking.
# [5] = tested on: efflux-defective yeast strain (BYΔ8); test: Yeast colony formation on ethanol/glycerol medium; assay type: cell-based, S. cerevisiae; conditions: 0.1 µM argyrin B
# Procedure: Strain BYΔ8 was incubated in 2.5% ethylmethanesulfonate until only 50% of the cells formed colonies. […] Amplifying the mutated MEF1 gene and transforming it into non-mutagenized BYΔ8 cells validated identified mutations in MEF1.
# [6] = tested on: HCT116; test: Cell viability (CellTiter-Glo), HCT116 with siRNA or mEF-G1 variants; assay type: cell-based, human; conditions: 7 days
# Procedure: as §1, §2, §3
compound,measurement,setting,value
C=C1NC(=O)CN(C)C(=O)CNC(=O)[C@H](Cc2c[nH]c3cccc(OC)c23)NC(=O)[C@H](Cc2c[nH]c3ccccc23)NC(=O)c2csc(n2)[C@@H](C)NC(=O)[C@@H](CC)NC1=O [argyrin B] (cyclo([dAbu][dAla(ψthiazole)]W[Trp(4-OMe)]G[Sar][Dha])),Susceptibility to argyrin B,[1]; P. aeruginosa ATCC 12055 (parent of ATCC 35151),8 µg/mL
same,Susceptibility to argyrin B,"[1]; P. aeruginosa ATCC 35151 (Z61), hypersensitive",0.125 to 0.25 µg/mL
same,Susceptibility to argyrin B,"[1]; P. aeruginosa CDA0055 (Z61, FusA1 S417L)",64 µg/mL
same,Susceptibility to argyrin B,"[1]; P. aeruginosa CDA0056 (Z61, FusA1 S459F)",8 µg/mL
same,Susceptibility to argyrin B,"[1]; P. aeruginosa CDA0061 (Z61, FusA L663Q)",>128 µg/mL
same,Susceptibility to argyrin B,"[1]; P. aeruginosa CDR0052 (K767, FusA1 T671A)",>128 µg/mL
same,Susceptibility to argyrin B,"[1]; P. aeruginosa CDR0054 (K767, FusA1 S459F)",>128 µg/mL
same,Susceptibility to argyrin B,"[1]; P. aeruginosa CDR0055 (K767, FusA1 S417L)",>128 µg/mL
same,Susceptibility to argyrin B,"[1]; P. aeruginosa CDR0056 (K767, FusA1 Y683C)",>128 µg/mL
same,Susceptibility to argyrin B,"[1]; P. aeruginosa CDR0057 (K767, FusA1 P486S)",>128 µg/mL
same,Susceptibility to argyrin B,"[1]; P. aeruginosa CDR0058 (K767, FusA1 P414S)",>128 µg/mL
same,Susceptibility to argyrin B,"[1]; P. aeruginosa K767 (PAO1, prototroph)",8 µg/mL
same,Sensitivity of mutants to argyrin B (in words),[1]; P. aeruginosa Z61 mutants with S417L and S459F substitutions,still partially sensitive
same,Lowering of IC50 by knock down of mEF-G1,"[2]; GFM1 siRNA, 7 days, CellTiter Glo",~3.3 fold
same,Sensitivity under hypoxic culture conditions (in words),"[2]; hypoxia, data not shown",became less sensitive
same,Decrease of susceptibility on expression of mEF-G1 L693Q,"[2]; mEF-G1 L693Q, 7 days",7 fold
same,Sensitivity change on expression of mEF-G1 S452L and S494F (in words),"[2]; mEF-G1 S452L and S494F, 7 days",only marginal effects
same,Sensitivity change on overexpression of mEF-G1 WT (in words),"[2]; mEF-G1 WT stable overexpression, 7 days",did not alter the argyrin B-sensitivity
same,Binding to human mEF-G1 (in words),[3],still bound
same,Activity against yeast (in words),"[4]; BYΔ8 (strain CMB970, eight genes involved in efflux deleted)",inactive
same,Inhibitory activity on glucose-grown yeast (in words),[4]; glucose-grown yeast,lack of inhibitory activity
same,Activity against yeast (in words),[4]; wild-type yeast (BY4741),inactive
same,Colony formation (in words),[5],abolished colony formation
same,Lowering of IC50 by knock down of mEF-G1,"[6]; HCT116, GFM1 siRNA, CellTiter Glo",circa 9.6 fold
same,Decrease of susceptibility on expression of mEF-G1 L693Q,"[6]; HCT116, mEF-G1 L693Q",4.7 fold
same,Sensitivity change on expression of mEF-G1 S452L and S494F (in words),"[6]; HCT116, mEF-G1 S452L and S494F",only marginal effects
same,Sensitivity change on overexpression of mEF-G1 WT (in words),"[6]; HCT116, mEF-G1 WT stable overexpression",did not alter the argyrin B-sensitivity
